Source: article PMC6364417, “Kinase inhibitor library screening identifies synergistic drug combinations effective in sensitive and resistant melanoma cells” (Journal of Experimental & Clinical Cancer Research : CR, 2019)

Assays:
Test in all cases: Kinase inhibitor library screening, PrestoBlue cell viability, 1 or 10 μM, 72 h
[1] = system: 501Mel cells (parental); details: 501Mel Parental, 72 h
Method in brief: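 Kinase inhibitors added at two fixed concentrations; 72 h exposure; PrestoBlue readout; % viability vs untreated; n ≥ 2 per line.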

[2] = system: 501Mel-GP cells (Dabrafenib-resistant); details: 501Mel GP, 72 h
[3] = system: 501Mel-XP cells (Vemurafenib-resistant); details: 501Mel XP, 72 h; for Cell viability in kinase inhibitor library screening, 501Mel XP, 1μΜ / Cell viability in kinase inhibitor library screening, 501Mel XP, 10μΜ: in %
[4] = system: A375 cells (parental); details: A375 Parental, 72 h
[5] = system: A375-GP cells (Dabrafenib-resistant); details: A375 GP, 72 h
[6] = system: A375-XP cells (Vemurafenib-resistant); details: A375 XP, 72 h
[7] = system: IGR37 cells (parental); details: IGR37 Parental, 72 h
[8] = system: IGR37-GP cells (Dabrafenib-resistant); details: IGR37 GP, 72 h; for Cell viability in kinase inhibitor library screening, IGR37 GP, 1μΜ: in %
[9] = system: IGR37-XP cells (Vemurafenib-resistant); details: IGR37 XP, 72 h; for Cell viability in kinase inhibitor library screening, IGR37 XP, 1μΜ: in %

Structure (SMILES) | cell viability (kinase inhibitor library screening) ([1]; 1μΜ) | cell viability (kinase inhibitor library screening) ([1]; 10μΜ) | cell viability (kinase inhibitor library screening) ([2]; 1μΜ) | cell viability (kinase inhibitor library screening) ([2]; 10μΜ) | cell viability (kinase inhibitor library screening) ([3]; 1μΜ) | cell viability (kinase inhibitor library screening) ([3]; 10μΜ) | cell viability (kinase inhibitor library screening) ([4]; 10μΜ) | cell viability (kinase inhibitor library screening) ([4]; 1μΜ) | cell viability (kinase inhibitor library screening) ([5]; 10μΜ) | cell viability (kinase inhibitor library screening) ([6]; 1μΜ) | cell viability (kinase inhibitor library screening) ([6]; 10μΜ) | cell viability (kinase inhibitor library screening) ([7]; 1μΜ) | cell viability (kinase inhibitor library screening) ([7]; 10μΜ) | cell viability (kinase inhibitor library screening) ([8]; 10μΜ) | cell viability (kinase inhibitor library screening) ([9]; 1μΜ) | cell viability (kinase inhibitor library screening) ([9]; 10μΜ) | cell viability (kinase inhibitor library screening) ([5]; 1μΜ) | cell viability (kinase inhibitor library screening) ([8]; 1μΜ) | Cell viability in kinase inhibitor library screening, 501Mel Parental, 10μΜ ([1]; 10μΜ, in %) | Cell viability in kinase inhibitor library screening, 501Mel GP, 10μΜ ([2]; 10μΜ, in %) | further results
CN(C[C@@H]1COCCO1)S(=O)(=O)Nc1ccc2ccc3ncc(-c4cnn(C)c4)cc3c(=O)c2c1 [MK-2461] | 102.9% | 83.3% | 90.6% | 45.5% | 77.5% | 30.0% | 78.1% | 106.3% | 78.6% | 106.1% | 88.4% | 103.2% | 84.5% | 28.3% | 99.3% | 6.5% | – | – | – | – | –
Cc1[nH]c(/C=C2\C(=O)Nc3ccc(S(=O)(=O)N(C)c4cccc(Cl)c4)cc32)c(C)c1C(=O)N1CCN(C)CC1 [SU11274] | 107.1% | 12.1% | 111.1% | 33.6% | 92.2% | 0.0577% | 65.8% | 112.5% | 46.3% | 111.1% | 22.4% | 117.2% | 13.1% | 37.8% | 105.9% | 19.7% | 104.3% | 103.1% | – | – | –
Nc1nc(Nc2ccc(S(N)(=O)=O)cc2)nn1C(=O)c1c(F)cccc1F [JNJ-7706621] | – | 0.466% | 110.0% | 0.28% | 97.8% | -0.273% | 5.3% | 89.1% | 3.0% | 93.1% | 5.9% | 95.5% | 9.4% | 18.2% | 106.1% | 2.5% | 89.4% | 99.1% | – | – | –
Nc1ccc(C(=O)Nc2cccc(-c3nc(N4CCOCC4)c4oc5ncccc5c4n3)c2)cn1 [YM201636] | – | – | – | – | – | – | – | – | – | – | – | – | – | – | – | – | – | – | 44.1 | 31.8 | Cell viability in kinase inhibitor library screening, 501Mel XP, 1μΜ ([3]; 1μΜ): 91.0; Cell viability in kinase inhibitor library screening, 501Mel XP, 10μΜ ([3]; 10μΜ): 17.1; Cell viability in kinase inhibitor library screening, A375 Parental, 10μΜ ([4]; 10μΜ): 56.6; Cell viability in kinase inhibitor library screening, A375 Parental, 1μΜ ([4]; 1μΜ): 99.8; Cell viability in kinase inhibitor library screening, A375 GP, 1μΜ ([5]; 1μΜ): 96.0; Cell viability in kinase inhibitor library screening, A375 GP, 10μΜ ([5]; 10μΜ): 53.2; Cell viability in kinase inhibitor library screening, A375 XP, 1μΜ ([6]; 1μΜ): 100.1; Cell viability in kinase inhibitor library screening, A375 XP, 10μΜ ([6]; 10μΜ): 52.8; Cell viability in kinase inhibitor library screening, IGR37 Parental, 1μΜ ([7]; 1μΜ, in %): 90.0; Cell viability in kinase inhibitor library screening, IGR37 Parental, 10μΜ ([7]; 10μΜ, in %): 53.4; Cell viability in kinase inhibitor library screening, IGR37 GP, 10μΜ ([8]; 10μΜ): 3.3%; Cell viability in kinase inhibitor library screening, IGR37 GP, 1μΜ ([8]; 1μΜ): 56.3; Cell viability in kinase inhibitor library screening, IGR37 XP, 10μΜ ([9]; 10μΜ): 1.2%; Cell viability in kinase inhibitor library screening, IGR37 XP, 1μΜ ([9]; 1μΜ): 35.0
COc1ccc2c(c1OC)N=C(NC(=O)c1cccnc1)N1CCN=C21 [PIK-90] | – | – | – | – | – | – | – | – | – | – | – | – | – | – | – | – | – | – | 71.7 | 50.5 | Cell viability in kinase inhibitor library screening, 501Mel Parental, 1μΜ ([1]; 1μΜ, in %): 97.1; Cell viability in kinase inhibitor library screening, 501Mel GP, 1μΜ ([2]; 1μΜ, in %): 98.4; Cell viability in kinase inhibitor library screening, 501Mel XP, 1μΜ ([3]; 1μΜ): 85.8; Cell viability in kinase inhibitor library screening, 501Mel XP, 10μΜ ([3]; 10μΜ): 43.2; Cell viability in kinase inhibitor library screening, A375 Parental, 10μΜ ([4]; 10μΜ): 58.0; Cell viability in kinase inhibitor library screening, A375 Parental, 1μΜ ([4]; 1μΜ): 94.8; Cell viability in kinase inhibitor library screening, A375 GP, 1μΜ ([5]; 1μΜ): 90.1; Cell viability in kinase inhibitor library screening, A375 GP, 10μΜ ([5]; 10μΜ): 52.7; Cell viability in kinase inhibitor library screening, A375 XP, 1μΜ ([6]; 1μΜ): 91.5; Cell viability in kinase inhibitor library screening, A375 XP, 10μΜ ([6]; 10μΜ): 58.7; Cell viability in kinase inhibitor library screening, IGR37 Parental, 10μΜ ([7]; 10μΜ, in %): 82.3; Cell viability in kinase inhibitor library screening, IGR37 GP, 10μΜ ([8]; 10μΜ): 60.2%; Cell viability in kinase inhibitor library screening, IGR37 GP, 1μΜ ([8]; 1μΜ): 89.1; Cell viability in kinase inhibitor library screening, IGR37 XP, 10μΜ ([9]; 10μΜ): 19.4%; Cell viability in kinase inhibitor library screening, IGR37 XP, 1μΜ ([9]; 1μΜ): 85.5
Cc1cc(CN2CCN(c3c(Br)cnc4nc(-c5ccc(N6CCN(C)CC6)cc5)[nH]c34)CC2)no1 [CCT137690] | 87.2% | 0.283% | 95.4% | -0.454% | 76.9% | -0.565% | 1.0% | 56.7% | 0.6% | – | 0.9% | 91.0% | 0.571% | 1.7% | 93.1% | 0.741% | 56.6% | 88.6% | – | – | –
